Values joined by “and” are separate entries in the source; they are usually repeats but may differ in a detail not shown here. Equal values may be shown once. “Also recorded” adds a separate entry of the source.
What was measured:
Male Sprague Dawley rats [1] = test: Locomotor sensitization during CPP conditioning sessions; format: in vivo, rat; conditions: 1.8, 3.2, 5.6 mg/Kg i.v., 5 daily injections, compared to vehicle
Description: (§1) Conditioned Place Preference (CPP) and locomotor activity: Standard CPP chambers (TSE; Chesterfield, Mo.) were used to measure baseline activity and conditioning trials. Baseline activity was measured over 2 days with 4 trials per day (2 in the AM, and 2 in the PM) lasting 20 min each. […] Conditioning trials were conducted for 5 days and tested in an unbiased manner such that drug/environment pairings were counterbalanced for time of drug injection (AM or PM) and compartment (preferred or non-preferred) based on baseline activity. […] This indicates a lack of carry-over effects of drug between sessions. One day following the last conditioning trial, a 20 min test trial was conducted in the same manner as baseline trials in which rats were free to explore both compartments. Change in time spent exploring the drug-paired compartment (test-baseline) was used to indicate preference (or aversion) to the compartment. Approximately 20 min following the final session, rats were perfused and brain samples were taken for immunohistochemical analysis (below). Locomotor activity was assessed by infrared light beams located in the conditioning compartments and the start box. […] Data were recorded in meters and an assessment of locomotor sensitization was made by subtracting the first session from the final session.
(§2) Experimenters were blinded to treatment groups.

Male Sprague Dawley rats [2] = test: Conditioned place preference (CPP), 5-day procedure; format: in vivo, rat; conditions: 5 days of conditioning, 1.8, 3.2, 5.6 mg/Kg i.v.
Description: as §1, §2

[3] = system: rats trained to discriminate morphine from vehicle; test: Drug discrimination (DD), morphine-trained rats; conditions: for Response rate impairment %: highest dose tested (5.6 mg/Kg), percent of vehicle responding
Description: Drug Discrimination (DD): Rats were food deprived to approximately 85% of the weight of free feeding cohorts to establish operant responding for 45 mg food pellets (Bioserve, Frenchtown, N.J.) in standard operant chambers (MED Associates, St. Albans, Vt.). Rats were fed 10-20 g of standard food after daily DD sessions, and ˜3× the daily amount on weekends to maintain appropriate weight. DD consisted of 3 phases (Krivsky et al., 2006). In phase 1, rats were trained to lever press for food at a fixed ratio (FR) level 1 (i.e., 1 lever press=1 food pellet) using 2 levers with stimulus lights located above each lever and a food hopper between the levers during 120 min sessions. Responding on either lever extinguished the light and delivered a food pellet. […] Once >20 pellets were earned at FR9, sessions were shortened to 20 min and response requirements were set at FR10 and the left or right lever reinforced responding on alternate days. Once >20 pellets were earned on each lever at FR10, rats started phase 2 of DD training.
Only responses on the correct lever were reinforced and responses on the incorrect lever reset the response requirement on the correct lever. Criteria to move to phase 3 were as follows: >20 pellets per session, >90% injection appropriate lever responding, and <9 responses on the incorrect lever before the first food pellet reward.
Two paradigms were utilized to generate substitution curves: cumulative within-session and bolus between-session injections.
During substitution tests, both levers actively delivered food at an FR10 schedule. […] Doses were increased in ¼ log increments, with injections every 20 min followed 15 minutes later by DD sessions lasting 5 min each. […] The advantage of this procedure was that an entire dose-response was generated in one session.
Statistics: PRISM software (GraphPad, San Diego, Calif.) was used for one-way analysis of variance (ANOVA) with Newman-Keuls post-hoc comparisons to compare CPP groups, locomotor effects, hot plate, and DD response rates. Locomotor data recorded during the conditioning sessions were analyzed by 2-way ANOVA (session x drug) and data from the first session were subtracted from the final session to assess locomotor enhancement. Experimenters were blinded to treatment groups.

male and female rats = test: Naloxone-induced conditioned place aversion (CPA); format: in vivo, rat; conditions: i.v. morphine 5.6 mg/Kg or ZH853 4.2 mg/Kg, naloxone 1 mg/Kg s.c. 4 h later
Description: Four hours later they received s.c. naloxone (1 mg/Kg) and were confined to one side of the apparatus (counterbalanced) for 20 min. The following day the animals received vehicle-then-saline rather than drug-then-naloxone. This cycle (drug+4 h+nlx+next day vehicle+saline) was repeated once, and the next day the animals had access to the entire apparatus (Post-cond).
To assess whether ZH853 induces the negative affect typical of opioid withdrawal, the conditioned place aversion (CPA) test was conducted.

male rats = test: Maintenance of established oxycodone self-administration (substitution); format: in vivo, rat
Description: Self-administration (SA): Self-administration tests were conducted in standard operant chambers (MED Associates, St. Albans, Vt.). Infusions were delivered through TYGON tubing threaded through metal spring leashes and attached to exterior infusion pumps. 3-hour sessions were conducted Monday-Friday during the dark cycle. At the start of each session, the house light was illuminated, and levers extended. […] For the first 5 sessions, rats were trained to lever press for oxycodone (0.1 mg/kg/infusion) on a FR1 reinforcement schedule. For the following 10 sessions, the dose of oxycodone was decreased to 0.05 mg/kg/infusion to increase lever responding.
Maintenance of established oxycodone self-administration: Following acquisition of oxycodone self-administration, animals were split into treatment groups counterbalanced for total oxycodone intake, average number of infusions obtained in the last 3 sessions, and average number of active lever pressings over the last 3 sessions. Ten maintenance sessions were conducted in the same way as oxycodone acquisition except rats were either maintained on 0.1 mg/kg/infusion oxycodone or had drug availability substituted with equi-antinociceptive 1 mg/kg/infusion ZH853 or vehicle.

male and female mice = conditions: acute, equi-antinociceptive doses
glia = conditions: conditions where morphine activates glia; cited from earlier work
rats = conditions: cited from earlier work

Compound: NC(=O)CNC(=O)[C@@H]1CCC(=O)NCCCC[C@@H](NC(=O)[C@@H](N)Cc2ccc(O)cc2)C(=O)N[C@@H](Cc2c[nH]c3ccccc23)C(=O)N[C@@H](Cc2ccccc2)C(=O)N1 [ZH853, Tyr-c[D-Lys-Trp-Phe-Glu]-Gly-NH2]
- locomotor sensitization (LS), day 5 minus day 1 (Male Sprague Dawley rats [1]): did not produce LS at any dose tested
- conditioned place preference (CPP) or aversion (Male Sprague Dawley rats [2]): did not produce CPP (or aversion) at any dose
- Response rate impairment % ([3]; bolus injections): 15% and 15.1%
- Response rate impairment % ([3]; cumulative injections): 0.8%
- response rates for food during test sessions ([3]; i.v., compared to vehicle): not impaired; also recorded: lowest among all compounds tested
- naloxone-induced place aversion (male and female rats): did not produce a place aversion
- self-administration behavior during maintenance sessions (male rats; after acquisition of oxycodone SA, drug continued or substituted, i.v. infusions): the self-administration behavior extinguished over time; also recorded: reduced the number of infusions obtained (C) and active lever responses (D) over maintenance sessions
- rate of extinction of self-administration (male rats; substitution for oxycodone): faster than with vehicle substitution
- distance traveled (AUC) (male and female mice): did not affect the distance traveled
- glial activation (glia): lack of glial activation
- hourly SA intake (peak) (rats; 12-hour SA sessions, 3 mg/Kg/infusion): 1.1 mg/kg/h
- reinforcing effects in SA/CPP procedures (rats; rat, in vivo): did not produce reinforcing effects in SA/CPP procedures
